Reference: PubChem BioAssay AID192 (DTP/NCI, 2004)
Several values for one entry are separate records, joined by “and”; a condition that tells them apart may be missing. Identical values can stand only once. Toxic doses and inconclusive results are not listed. The calls were made as follows: active = survival T/C of 150% or more; inactive = T/C below 125% in these data.

Tested on: BDF1 mice, B16 melanoma ip, median survival T/C
Assay: NCI In Vivo Anticancer Drug Screen. Data for tumor model B16 Melanoma (intraperitoneal) in B6D2F1 (BDF1) mice
Conditions: endpoint: median survival time, higher = longer survival
Outline: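 The ratio T/C compares compound-treated mice with vehicle-treated controls, using survival or tumor size as the endpoint in a transplantable tumor model.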

[1] = dose: 200.0 mg/kg/injection, schedule: Q04DX003 (ip), vehicle: Klucel (hydroxypropylcellulose) (HPC)
[2] = dose: 100.0 mg/kg/injection, schedule: Q01DX009 (ip), vehicle: Klucel (hydroxypropylcellulose) (HPC)
[3] = dose: 200.0 mg/kg/injection, schedule: Q01DX009 (ip), vehicle: Klucel (hydroxypropylcellulose) (HPC)
[4] = dose: 400.0 mg/kg/injection, schedule: Q01DX009 (ip), vehicle: Klucel (hydroxypropylcellulose) (HPC)
[5] = dose: 75.0 mg/kg/injection, schedule: Q01DX009 (ip), vehicle: Klucel (hydroxypropylcellulose) (HPC)
[6] = dose: 18.75 mg/kg/injection, schedule: Q01DX009 (ip), vehicle: Klucel (hydroxypropylcellulose) (HPC)
[7] = dose: 12.5 mg/kg/injection, schedule: Q01DX009 (ip), vehicle: saline with Tween-80
[8] = dose: 25.0 mg/kg/injection, schedule: Q01DX009 (ip), vehicle: saline with Tween-80
[9] = dose: 25.0 mg/kg/injection, schedule: Q01DX009 (ip), vehicle: saline
[10] = dose: 50.0 mg/kg/injection, schedule: Q01DX009 (ip), vehicle: saline with Tween-80
[11] = dose: 12.5 mg/kg/injection, schedule: Q01DX009 (ip), vehicle: saline
[12] = dose: 50.0 mg/kg/injection, schedule: Q01DX009 (ip), vehicle: saline

Measured: T/C

C/C=C(\CC)C(=O)NC(N)=O
inactive: dose: 12.5 mg/kg/injection, schedule: Q04DX003 (ip), vehicle: Klucel (hydroxypropylcellulose) (HPC) 93 % of control | dose: 25.0 mg/kg/injection, schedule: Q04DX003 (ip), vehicle: Klucel (hydroxypropylcellulose) (HPC) 100 % of control | dose: 50.0 mg/kg/injection, schedule: Q04DX003 (ip), vehicle: Klucel (hydroxypropylcellulose) (HPC) 93 % of control | [1] 95 % of control

C=CCc1ccccc1C
inactive: [2] 104 % of control | [3] 105 % of control | [4] 90 % of control

OCCOCCN1CCN(CCCN2c3ccccc3Sc3ccc(C(F)(F)F)cc32)CC1
inactive: dose: 0.8 mg/kg/injection, schedule: Q01DX009 (ip), vehicle: saline 106 % of control | dose: 1.6 mg/kg/injection, schedule: Q01DX009 (ip), vehicle: saline 102 % of control | dose: 3.2 mg/kg/injection, schedule: Q01DX009 (ip), vehicle: saline 102 % of control | dose: 6.4 mg/kg/injection, schedule: Q01DX009 (ip), vehicle: saline 105 % of control | dose: 3.1 micrograms/kg/injection, schedule: Q01DX009 (ip), vehicle: saline 108 % of control | dose: 6.2 micrograms/kg/injection, schedule: Q01DX009 (ip), vehicle: saline 111 % of control | dose: 12.5 micrograms/kg/injection, schedule: Q01DX009 (ip), vehicle: saline 123 % of control | dose: 25.0 micrograms/kg/injection, schedule: Q01DX009 (ip), vehicle: saline 111 % of control | dose: 50.0 micrograms/kg/injection, schedule: Q01DX009 (ip), vehicle: saline 109 % of control | dose: 100.0 micrograms/kg/injection, schedule: Q01DX009 (ip), vehicle: saline 110 % of control | dose: 200.0 micrograms/kg/injection, schedule: Q01DX009 (ip), vehicle: saline 110 % of control | dose: 400.0 micrograms/kg/injection, schedule: Q01DX009 (ip), vehicle: saline 116 % of control

N#CCN1CCCN(CC#N)C1
inactive: [5] 96 % of control

CCOC(=O)C1(C)OCCO1
inactive: dose: 100.0 mg/kg/injection, schedule: Q04DX003 (ip), vehicle: saline 95 % of control | dose: 200.0 mg/kg/injection, schedule: Q04DX003 (ip), vehicle: saline 104 % of control | dose: 400.0 mg/kg/injection, schedule: Q04DX003 (ip), vehicle: saline 104 % of control

C[n+]1ccc(Nc2ccc(NC(=O)c3ccc(Nc4cc[n+](C)c5ccc([N+](=O)[O-])cc45)cc3)cc2)cc1
inactive: dose: 4.0 mg/kg/injection, schedule: Q01DX009 (ip), vehicle: saline 107 % of control | dose: 8.0 mg/kg/injection, schedule: Q01DX009 (ip), vehicle: saline 102 % of control | dose: 16.0 mg/kg/injection, schedule: Q01DX009 (ip), vehicle: saline 107 % of control | dose: 32.0 mg/kg/injection, schedule: Q01DX009 (ip), vehicle: saline 103 % of control

CN(C)N=Nc1c(Cl)cccc1Cl
inactive: [6] 101 % of control | dose: 37.5 mg/kg/injection, schedule: Q01DX009 (ip), vehicle: Klucel (hydroxypropylcellulose) (HPC) 105 % of control

O=[N+]([O-])c1ccc([I+]c2ccccc2)cc1
inactive: dose: 12.5 mg/kg/injection, schedule: Q01DX009 (ip), vehicle: Klucel (hydroxypropylcellulose) (HPC) 115 % of control | [7] 113 % of control | dose: 25.0 mg/kg/injection, schedule: Q01DX009 (ip), vehicle: Klucel (hydroxypropylcellulose) (HPC) 118 % of control | [8] 112 % of control

O=C1NC(c2ccccc2)C(=O)N1CCN(CCCl)CCCl (stereo not drawn)
inactive: dose: 1.56 mg/kg/injection, schedule: Q01DX009 (ip), vehicle: saline 89 % of control and 109 % of control | dose: 3.12 mg/kg/injection, schedule: Q01DX009 (ip), vehicle: saline 95 % of control and 114 % of control | dose: 6.25 mg/kg/injection, schedule: Q01DX009 (ip), vehicle: saline 123 % of control | [9] 115 % of control

C/C=C/C(=O)OCC1CCN(C)C1 (stereo not drawn)
inactive: dose: 50.0 mg/kg/injection, schedule: Q01DX009 (ip), vehicle: water 98 % of control | dose: 100.0 mg/kg/injection, schedule: Q01DX009 (ip), vehicle: water 107 % of control | dose: 200.0 mg/kg/injection, schedule: Q01DX009 (ip), vehicle: water 90 % of control

O=C1NC(=S)S/C1=C\c1ccc(Cl)c(Cl)c1
inactive: [2] 88 % of control | dose: 100.0 mg/kg/injection, schedule: Q04DX003 (ip), vehicle: Klucel (hydroxypropylcellulose) (HPC) 88 % of control | [3] 97 % of control | [1] 93 % of control | [4] 97 % of control | dose: 400.0 mg/kg/injection, schedule: Q04DX003 (ip), vehicle: Klucel (hydroxypropylcellulose) (HPC) 88 % of control

O=C1OCCN1/N=C/c1ccc([N+](=O)[O-])o1
inactive: [2] 100 % of control

Cc1ccc(NC(=O)c2ccc(C(=O)Nc3ccc(C)cc3)cc2)cc1
inactive: [7] 117 % of control | [8] 93 % of control | [10] 100 % of control

C=C(C)C1CCC2(C=O)CCC3(C)C(CCC4C5(C)CCC(O)C(C)(C)C5CCC43C)C12 (stereo not drawn)
inactive: [6] 94 % of control | [5] 97 % of control

C#C[C@]1(O)CC[C@H]2[C@@H]3CCc4cc(O)ccc4[C@H]3CC[C@@]21C
inactive: dose: 5.0 mg/kg/injection, schedule: Q02DX009 (ip), vehicle: Klucel (hydroxypropylcellulose) (HPC) 86 % of control | dose: 10.0 mg/kg/injection, schedule: Q02DX009 (ip), vehicle: Klucel (hydroxypropylcellulose) (HPC) 97 % of control | dose: 20.0 mg/kg/injection, schedule: Q02DX009 (ip), vehicle: Klucel (hydroxypropylcellulose) (HPC) 87 % of control | dose: 40.0 mg/kg/injection, schedule: Q02DX009 (ip), vehicle: Klucel (hydroxypropylcellulose) (HPC) 86 % of control and 96 % of control | dose: 80.0 mg/kg/injection, schedule: Q02DX009 (ip), vehicle: Klucel (hydroxypropylcellulose) (HPC) 86 % of control

ClCC[N+]12CC[N+](CCCl)(CC1)C2
inactive: [7] 95 % of control and 100 % of control | [11] 112 % of control and 95 % of control | [8] 104 % of control | [9] 109 % of control and 105 % of control | [10] 110 % of control and 116 % of control | [12] 124 % of control and 101 % of control | dose: 100.0 mg/kg/injection, schedule: Q01DX009 (ip), vehicle: saline 101 % of control | dose: 200.0 mg/kg/injection, schedule: Q01DX009 (ip), vehicle: saline 100 % of control | dose: 400.0 mg/kg/injection, schedule: Q01DX009 (ip), vehicle: saline 107 % of control

COC(=O)C[C@](O)(CCCC(C)(C)O)C(=O)O[C@@H]1C(OC)=C[C@]23CCCN2CCc2cc4c(cc2[C@H]13)OCO4
inactive: dose: 0.13 mg/kg/injection, schedule: Q01DX009 (ip), vehicle: saline sonified 107 % of control | dose: 0.25 mg/kg/injection, schedule: Q01DX009 (ip), vehicle: saline sonified 120 % of control | dose: 0.25 mg/kg/injection, schedule: Q01DX009 (ip), vehicle: saline with Tween-80 114 % of control | dose: 0.98 mg/kg/injection, schedule: Q04DX003 (ip), vehicle: saline 121 % of control | dose: 1.0 mg/kg/injection, schedule: Q01DX009 (ip), vehicle: saline with Tween-80 111 % of control | dose: 1.4 mg/kg/injection, schedule: Q04DX003 (ip), vehicle: saline 117 % of control | dose: 2.0 mg/kg/injection, schedule: Q04DX003 (ip), vehicle: saline 118 % of control | dose: 2.86 mg/kg/injection, schedule: Q04DX003 (ip), vehicle: saline 117 % of control

O=C(O)c1cccc(S(=O)(=O)N(CCO)CCO)c1
inactive: [11] 95 % of control | [9] 97 % of control | [10] 91 % of control | [12] 92 % of control
